Measured values as given in patent US20080108568A1, “COMPOUNDS FOR IMPROVING LEARNING AND MEMORY” (TGEN, priority 2006, published 2008).
“Also recorded” adds a separate entry of the source.

What was measured:
[1] = test system: aged (18-months old) rats; experiment: water escape radial arm maze, more difficult version of the working memory trial (7 out of 8 arms platformed); type: in vivo, rat
Experimental: (§1) This experiment included a decreased pre-loading phase, a more difficult version of the working memory trial (where 7 out of 8 arms were platformed), and an elongated version of the Morris maze (7 days plus a “probe” trial). Fasudil was delivered via daily sub-cutaneous injections to aged (18-months old) rats at doses of 3 mg/kg/day (n=8) or 10 mg/kg/day (n=8). Controls included both aged and young (4-months old) rats injected daily with vehicle (normal saline). The low dose for Fasudil was based upon the evidence in Example 3 showing efficacy and the high dose was based on that reported in the literature as a commonly used low therapeutic dose. There was a one day loading period for this experiment.

aged rats = experiment: Morris water maze (reference memory); type: in vivo, rat
Experimental: The rats were also tested using the Morris water maze. The Morris water maze consists of a circular water bath with a single platform. The bath is divided into 4 quadrants and various annuli. A rat was placed in the water bath and the time and distance that the rat required to reach the platform was measured. The solving strategy used by the rat was also noted. The movement of the rat was tracked using a digital tracking system. Each rat underwent 4 trials per day, with entry into the maze varied by quadrant for each trial. The Morris water maze included 5 days of testing, with the first 4 days involving testing and day 5 involving a probe trial.
(§2) Aged animals were pre-loaded for 14 days at 10mg/kg/day (FAS LOW DOSE+PRIMING) or at 3 mg/kg/day (FAS LOW DOSE). After 14 days all animals were administered 3 mg/kg/day. Vehicle was normal saline (0.9%). The rats were subjected to the Radial Arm Maze and the Morris Water Maze described above.
Fasudil was also delivered via daily sub-cutaneous injections to aged (18-months old) rats at doses of 3 mg/kg/day (n=8) or 30 mg/kg/day (n=8). Controls included both aged and young (4-months old) rats injected daily with vehicle (normal saline). The low dose for Fasudil was based upon the previous study showing efficacy with 0.750 mg/kg/day hydroxyfasudil and the high dose was based on that reported in the literature as a commonly used therapeutic dose.

[2] = test system: aged (18-months old) rats; experiment: tolerability observation during daily sub-cutaneous dosing; type: in vivo, rat; conditions: 10 mg/kg/day s.c., after 7 days of drug delivery; animals switched to the low dose
Experimental: as §1

[3] = test system: “memory molecule” transcripts in the hippocampus; experiment: expression profile of the entire hippocampus of hydroxyfasudil treated animals; type: in vivo; conditions: FIG. 6
From the text: The tissue source is the entire hippocampus.
After testing, the rats were terminated and the brain dissected.

[4] = test system: aged rats (18 months old); experiment: water escape radial arm maze test (4 of 8 arms platformed); type: in vivo, rat
Experimental: Hydroxyfasudil was tested in vivo by administering to aged rats (18 months old) two doses of 0.75 mg/kg and 0.375 mg/kg, delivered subcutaneously each day for a period of 4-5 days before testing. During testing, hydroxyfasudil was administered in the morning of each testing day. Two control groups were used, with one group being untreated and the other group treated with the vehicle (saline). Both control groups include 9 members, with an age of 4 months.
The rats were then tested using the water escape radial arm maze test. The radial arm maze is a swim-based test without the need for food deprivation. The maze consists of 8 radial arms, with 4 of the arms having a submerged platform. […] The rat was given 180 seconds to locate a platform. If the rat located a platform, the rat was allowed 15 seconds on the platform, and was then removed. When a rat found a platform, that platform was removed prior to beginning the next trial. Each rat was subjected to 4 trials per day, with 1 trial per platform and 30 seconds between trials. Each rat was tested over a period of 12 days, with the first day consisting of training, days 2-7 considered “initial,” and days 8-12 considered “latter.”
Additional efficacy testing was performed using twenty-seven 18-month old male rats were utilized and divided randomly into three treatment groups: saline vehicle (“Aged Vehicle”), hydroxyfasudil in saline at a dose of 0.1875 mg per day (“Aged Low Dose”), and hydroxyfasudil at a dose of 0.3750 mg per day (“Aged High Dose”). Daily injections of the assigned substrate began four days prior to behavioral testing and continued throughout testing, with injections given approximately one hour before daily testing ensued. Animals were tested 4 trials per day for 12 consecutive days. Following the water radial arm maze, spatial reference memory was assessed using the Morris water maze. This testing consisted of 4 trials per day for 4 days with an additional probe trial on the final day.
Using the protocol described above for hydroxyfasudil, rats were treated with from 1 mg/kg to 2 mg/kg of fenretinide. The rats were subjected to the Radial Arm Maze and the Morris Water Maze described above.
as §2

[5] = rats, 1 mg/kg to 2 mg/kg, FIG. 7

O=S(=O)(c1cccc2cnccc12)N1CCCNCC1 [Fasudil, fasudil]
memory performance ([1]; FIG. 12 legend): improves memory performance | working memory performance ([1]; aged rats, 3 or 10 mg/kg/day s.c. (10 mg/kg/day switched to low dose after 7 days), especially trials 6 and 7, FIG. 12): significant improvement in working memory performance | efficacy of the low dose (evidence in Example 3) (aged rats; 3 mg/kg/day s.c.): efficacy | reference memory performance (inches swam to locate the hidden platform), by day (aged rats; 14 days pre-loading at 10 or 3 mg/kg/day, then 3 mg/kg/day, collapsed across trials each day, FIG. 11A): improves reference memory performance | reference memory performance (inches swam to locate the hidden platform), by trial (aged rats; 14 days pre-loading at 10 or 3 mg/kg/day, then 3 mg/kg/day, collapsed by trial for all four days, FIG. 11B): improves reference memory performance | trauma in dosed animals [2]: began to show similar trauma as in the previous study

O=c1[nH]ccc2c(S(=O)(=O)N3CCCNCC3)cccc12 [hydroxyfasudil]
“memory molecule” transcripts in the hippocampus [3]: alteration of “memory molecule” transcripts | memory (working memory) ([4]; 18-month old male rats, 0.1875 mg per day and 0.3750 mg per day, daily injections from four days before testing, FIG. 16): improved memory; also recorded: improves working memory | working memory ([4]; FIG. 5 legend): improves working memory | memory ([4]; aged rats, 0.75 mg/kg and 0.375 mg/kg s.c. daily, FIGS. 3-5): improved memory | learning scores (orthogonal measures of working memory) ([4]; aged rats, 0.75 mg/kg and 0.375 mg/kg subcutaneously each day, FIGS. 3-4): improved learning scores | improvements of learning, higher doses versus smaller doses ([4]; aged rats, 0.75 mg/kg vs 0.375 mg/kg s.c. daily, FIGS. 3-4): greater improvements of learning | improvements of memory, higher doses versus smaller doses ([4]; aged rats, 0.75 mg/kg vs 0.375 mg/kg s.c. daily, FIGS. 3-5): greater improvements of memory | performance of aging rats compared with young rats ([4]; aging rats receiving the compound): perform at a level comparable to young rats

CC1=C(/C=C/C(C)=C/C=C/C(C)=C/C(=O)Nc2ccc(O)cc2)C(C)(C)CCC1 [fenretinide]
working memory ([4]; 6 rats per group, FIG. 7 legend): improving working memory | memory, greater doses versus smaller doses [4, 5]: improved memory more than smaller doses | number of incorrect errors made by the rats, versus the control [4, 5]: lowered the number of incorrect errors
